Source: PubChem BioAssay (NCI)
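Dose response: 5 concentrations. Exposure: 48 h. Format: 96-well plates. Endpoint: linear interpolation; highest concentration if not reached. TGI marks complete inhibition of growth.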

Columns and labels:
Experiment in all cases: NCI anticancer screen, dose series, 48 h
[1] = test system: M14 melanoma
[2] = test system: SK-OV-3 ovarian
[3] = test system: RPMI-8226 leukemia
[4] = test system: A549 NSCLC
[5] = test system: SK-MEL-28 melanoma
[6] = test system: LOX IMVI melanoma
[7] = test system: SW-620 colon
[8] = test system: HS 578T breast
[9] = test system: TK-10 renal
[10] = test system: 786-0 renal
[11] = test system: MCF7 breast
[12] = test system: IGROV1 ovarian
[13] = test system: MALME-3M melanoma
[14] = test system: NCI-H522 lung
[15] = test system: UACC-62 melanoma
[16] = test system: HCT-15 colon
[17] = test system: HOP-62 NSCLC
[18] = test system: OVCAR-4 ovarian
[19] = test system: T-47D breast
[20] = test system: NCI/ADR-RES ovarian
[21] = test system: MDA-MB-435
[22] = test system: NCI-H23 lung
[23] = test system: OVCAR-5 ovarian
[24] = test system: KM12 colon
[25] = test system: K-562 leukemia
[26] = test system: SK-MEL-2 melanoma
[27] = test system: SF-295 CNS
[28] = test system: A498 renal
[29] = test system: HT29 colon
[30] = test system: SNB-75 CNS
[31] = test system: NCI-H460 lung
[32] = test system: HL-60(TB) leukemia
[33] = test system: EKVX NSCLC
[34] = test system: SR leukemia
[35] = test system: CCRF-CEM leukemia
[36] = test system: OVCAR-8 ovarian
[37] = test system: SF-268 CNS
[38] = test system: DU-145 prostate
[39] = test system: U251 CNS
[40] = test system: PC-3 prostate
[41] = test system: HCT-116 colon
[42] = test system: MDA-MB-231 breast
[43] = test system: BT-549 breast
[44] = test system: HOP-92 NSCLC
[45] = test system: SK-MEL-5 melanoma
[46] = test system: OVCAR-3 ovarian
[47] = test system: ACHN renal
[48] = test system: COLO 205 colon
[49] = test system: SF-539 CNS
[50] = test system: RXF 393 renal
[51] = test system: CAKI-1 renal
[52] = test system: SN12C renal
[53] = test system: HCC-2998 colon
[54] = test system: MDA-N
[55] = test system: UO-31 renal
[56] = test system: UACC-257 melanoma
[57] = test system: SNB-19 CNS
[58] = test system: MOLT-4 leukemia
[59] = test system: KM20L2 colon
[60] = test system: M19-MEL melanoma
[61] = test system: LXFL 529 NSCLC
[62] = test system: DMS 114 small cell lung
[63] = test system: XF 498 CNS
[64] = test system: DLD-1 colon
[65] = test system: DMS 273 small cell lung
[66] = test system: NCI-H226 lung

## CC(=O)Nc1nc(C)c(S(=O)(=O)NC(=O)NC2NC(=O)NC2=O)s1 (stereo unspecified)
[1]
  TGI: > 100 µM
[2]
  TGI: > 100 µM
[3]
  TGI: > 100 µM
[4]
  TGI: > 100 µM
[5]
  TGI: > 100 µM
[6]
  TGI: > 100 µM
[7]
  TGI: > 100 µM
[8]
  TGI: > 100 µM
[9]
  TGI: > 100 µM
[10]
  TGI: > 100 µM
[11]
  TGI: > 100 µM
[12]
  TGI: > 100 µM
[13]
  TGI: > 100 µM
[14]
  TGI: > 100 µM
[15]
  TGI: > 100 µM
[16]
  TGI: > 100 µM
[17]
  TGI: > 100 µM
[18]
  TGI: > 100 µM
[19]
  TGI: > 100 µM
[20]
  TGI: > 100 µM
[21]
  TGI: > 100 µM
[22]
  TGI: > 100 µM
[23]
  TGI: > 100 µM
[24]
  TGI: > 100 µM
[25]
  TGI: > 100 µM
[26]
  TGI: > 100 µM
[27]
  TGI: > 100 µM
[28]
  TGI: > 100 µM
[29]
  TGI: > 100 µM
[30]
  TGI: > 100 µM
[31]
  TGI: > 100 µM
[32]
  TGI: > 100 µM
[33]
  TGI: > 100 µM
[34]
  TGI: > 100 µM
[35]
  TGI: > 100 µM
[36]
  TGI: > 100 µM
[37]
  TGI: > 100 µM
[38]
  TGI: > 100 µM
[39]
  TGI: > 100 µM
[40]
  TGI: > 100 µM
[41]
  TGI: > 100 µM
[42]
  TGI: > 100 µM
[43]
  TGI: > 100 µM
[44]
  TGI: > 100 µM
[45]
  TGI: > 100 µM
[46]
  TGI: > 100 µM
[47]
  TGI: > 100 µM
[48]
  TGI: > 100 µM
[49]
  TGI: > 100 µM
[50]
  TGI: > 100 µM
[51]
  TGI: > 100 µM
[52]
  TGI: > 100 µM
[53]
  TGI: > 100 µM
[54]
  TGI: > 100 µM
[55]
  TGI: > 100 µM
[56]
  TGI: > 100 µM
[57]
  TGI: > 100 µM
[58]
  TGI: > 100 µM

## CC#Cc1c(O)c2c(c(O)c1C#CC)C(=O)c1ccccc1C2=O
[1]
  TGI: > 100 µM
[2]
  TGI: > 100 µM
[3]
  TGI: > 100 µM
[4]
  TGI: > 100 µM
[6]
  TGI: > 100 µM
[59]
  TGI: > 100 µM
[7]
  TGI: > 100 µM
[9]
  TGI: > 100 µM
[10]
  TGI: > 100 µM
[12]
  TGI: > 100 µM
[13]
  TGI: > 100 µM
[15]
  TGI: > 100 µM
[16]
  TGI: > 100 µM
[17]
  TGI: > 100 µM
[18]
  TGI: > 100 µM
[23]
  TGI: > 100 µM
[25]
  TGI: > 100 µM
[26]
  TGI: > 100 µM
[32]
  TGI: > 100 µM
[33]
  TGI: > 100 µM
[34]
  TGI: > 100 µM
[35]
  TGI: > 100 µM
[36]
  TGI: > 100 µM
[60]
  TGI: > 100 µM
[61]
  TGI: 42.7 µM
[39]
  TGI: > 100 µM
[62]
  TGI: > 100 µM
[63]
  TGI: > 100 µM
[45]
  TGI: > 100 µM
[47]
  TGI: > 100 µM
[48]
  TGI: > 100 µM
[64]
  TGI: > 100 µM
[51]
  TGI: > 100 µM
[52]
  TGI: > 100 µM
[53]
  TGI: > 100 µM
[65]
  TGI: > 100 µM
[58]
  TGI: > 100 µM

## COc1cc(C2C=C(c3ccccc3)Oc3cc4c(cc32)OCO4)cc(OC)c1OC (stereo unspecified)
[1]
  TGI: > 100 µM
[2]
  TGI: > 100 µM
[3]
  TGI: > 100 µM
[4]
  TGI: > 100 µM
[5]
  TGI: > 100 µM
[6]
  TGI: > 54.8 µM
[7]
  TGI: > 100 µM
[8]
  TGI: > 100 µM
[9]
  TGI: > 100 µM
[10]
  TGI: > 19.6 µM
[11]
  TGI: > 100 µM
[12]
  TGI: > 100 µM
[13]
  TGI: > 100 µM
[15]
  TGI: > 100 µM
[16]
  TGI: > 100 µM
[17]
  TGI: > 100 µM
[18]
  TGI: > 100 µM
[19]
  TGI: > 100 µM
[20]
  TGI: > 15.2 µM
[21]
  TGI: > 100 µM
[22]
  TGI: > 27 µM
[23]
  TGI: > 100 µM
[24]
  TGI: > 30.6 µM
[25]
  TGI: > 100 µM
[26]
  TGI: > 81.1 µM
[27]
  TGI: > 16.9 µM
[28]
  TGI: > 100 µM
[29]
  TGI: > 18.3 µM
[30]
  TGI: > 90.8 µM
[31]
  TGI: > 100 µM
[32]
  TGI: > 34.3 µM
[33]
  TGI: > 100 µM
[34]
  TGI: > 100 µM
[35]
  TGI: > 100 µM
[36]
  TGI: > 32.6 µM
[37]
  TGI: > 100 µM
[38]
  TGI: 4.58 µM
[39]
  TGI: > 100 µM
[40]
  TGI: > 100 µM
[41]
  TGI: 9.44 µM
[42]
  TGI: > 32.2 µM
[43]
  TGI: > 100 µM
[44]
  TGI: > 100 µM
[45]
  TGI: > 47.8 µM
[46]
  TGI: > 100 µM
[47]
  TGI: > 100 µM
[48]
  TGI: > 17.1 µM
[49]
  TGI: 3.63 µM
[50]
  TGI: > 100 µM
[51]
  TGI: > 100 µM
[52]
  TGI: > 96.3 µM
[53]
  TGI: > 100 µM
[54]
  TGI: > 16.6 µM
[55]
  TGI: > 100 µM
[56]
  TGI: > 100 µM
[57]
  TGI: > 100 µM
[58]
  TGI: > 100 µM

## COC(=O)[C@H](Cc1ccccc1)NC(=O)c1ccc(CNC(=O)/C=C/c2ccc(OCc3ccccc3)cc2)cc1
[1]
  TGI: 7.38 µM
[2]
  TGI: 59.9 µM
[3]
  TGI: > 100 µM
[4]
  TGI: > 72.7 µM
[5]
  TGI: 25.2 µM
[6]
  TGI: > 100 µM
[7]
  TGI: > 100 µM
[8]
  TGI: 21.1 µM
[9]
  TGI: 32 µM
[10]
  TGI: 19.1 µM
[11]
  TGI: > 100 µM
[12]
  TGI: 9.66 µM
[13]
  TGI: 11.5 µM
[14]
  TGI: > 100 µM
[15]
  TGI: 18.6 µM
[16]
  TGI: > 100 µM
[17]
  TGI: 26.3 µM
[18]
  TGI: 25.2 µM
[19]
  TGI: 72.2 µM
[20]
  TGI: > 78 µM
[21]
  TGI: 12.8 µM
[22]
  TGI: 33.5 µM
[23]
  TGI: > 81.6 µM
[24]
  TGI: > 100 µM
[25]
  TGI: > 100 µM
[26]
  TGI: 7.92 µM
[27]
  TGI: 35.7 µM
[28]
  TGI: 21.4 µM
[29]
  TGI: > 58 µM
[30]
  TGI: 31.6 µM
[31]
  TGI: > 100 µM
[32]
  TGI: 11.8 µM
[33]
  TGI: 87.6 µM
[34]
  TGI: > 100 µM
[35]
  TGI: > 100 µM
[36]
  TGI: 36.4 µM
[37]
  TGI: 28.1 µM
[38]
  TGI: 32.4 µM
[39]
  TGI: > 75.4 µM
[40]
  TGI: 43.8 µM
[41]
  TGI: > 100 µM
[42]
  TGI: 47 µM
[43]
  TGI: 57.9 µM
[44]
  TGI: 9.43 µM
[45]
  TGI: 33.4 µM
[46]
  TGI: 28.2 µM
[47]
  TGI: 33 µM
[48]
  TGI: > 100 µM
[49]
  TGI: 51.9 µM
[50]
  TGI: 18.7 µM
[51]
  TGI: 26 µM
[52]
  TGI: 32.6 µM
[66]
  TGI: 49.8 µM
[53]
  TGI: > 100 µM
[54]
  TGI: 5.43 µM
[55]
  TGI: 29.5 µM
[56]
  TGI: 7.33 µM
[57]
  TGI: 36.8 µM
[58]
  TGI: 28 µM
